Assay results as given in the supplement of paper PMC11451515.

Experiments:
Conditions in all cases: 48 h
NOMO1 [1] = assay: AUC of viability dose-response curve (% viability x log10 dose units); higher = less sensitive
Procedure, shortened: (§1)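 Over 48 h at 37°C, leukemia cells in 1536-well plates (500 or 1000 cells/well), adapted to each medium, received library compounds in DMSO at 11 threefold doses from 47 μM to 0.79 nM. CellTiter-Glo One luminescence, normalised per plate to DMSO and cell-free wells, was fitted by a four-parameter log-logistic function of log10 dose. The area under the curve was then integrated by trapezoidal rule, after scaling curves above full viability and removing those that failed quality control.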

P12-Ichikawa [2] = assay: as above
Procedure, shortened: as §1

SEM cells [3] = assay: as above
Procedure, shortened: as §1

NOMO1 [4] = assay: cell viability relative to DMSO control; higher = less cytotoxic
Procedure, shortened: (§2)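 Leukemia cells (NOMO1 or SEM, 500 cells/well; P12-Ichikawa, 1000 cells/well) were seeded in 5 μl in 1536-well plates after at least four passages of adaptation to each medium. They received library compounds in DMSO by pin dosing, 11 threefold points from 47 μM to 0.79 nM. Luminescence with CellTiter-Glo One was read after 48 h at 37°C. Viability is stated per plate relative to DMSO wells, with cell-free wells as background.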

P12-Ichikawa [5] = assay: as above
Procedure, shortened: as §2

SEM cells [6] = assay: as above
Procedure, shortened: as §2

COc1ccc(-c2ccc3c(N4CCOCC4)nc(N4C[C@@H](C)O[C@@H](C)C4)nc3n2)cc1CO
AUC of viability dose-response curve
Conditions	NOMO1 [1]	P12-Ichikawa [2]	SEM cells [3]
HPLM + 10% dialyzed FBS	304	336	343
RPMI 5 mM glucose + 10% FBS	372	301	342
RPMI 5 mM glucose + 10% dialyzed FBS	353	326	356

COC(=O)Nc1cc(Nc2cc(NC3CC3)c3ncc(C#N)n3n2)c(Cl)c(N2CCN(C)CC2)c1
cell viability [%]
Conditions	NOMO1 [4]	P12-Ichikawa [5]	SEM cells [6]
HPLM + 10% dialyzed FBS, 0.000781 µM	117	107	97.9
HPLM + 10% dialyzed FBS, 0.00234 µM	114	102	103
HPLM + 10% dialyzed FBS, 0.00702 µM	104	102	98.7
HPLM + 10% dialyzed FBS, 0.0211 µM	107	111	98.5
HPLM + 10% dialyzed FBS, 0.0632 µM	108	106	98
HPLM + 10% dialyzed FBS, 0.19 µM	112	97.4	102
HPLM + 10% dialyzed FBS, 0.569 µM	93.7	106	86.5
HPLM + 10% dialyzed FBS, 1.71 µM	86.7	103	77.7
HPLM + 10% dialyzed FBS, 5.12 µM	64.5	76.8	37.9
HPLM + 10% dialyzed FBS, 15.4 µM	45.6	65.3	5.22
HPLM + 10% dialyzed FBS, 46.1 µM	4.67	3.92	4.93
RPMI 5 mM glucose + 10% FBS, 0.000781 µM	88.7	104	–
RPMI 5 mM glucose + 10% FBS, 0.00234 µM	112	104	–
RPMI 5 mM glucose + 10% FBS, 0.00702 µM	108	102	–
RPMI 5 mM glucose + 10% FBS, 0.0211 µM	110	106	–
RPMI 5 mM glucose + 10% FBS, 0.0632 µM	93.3	105	–
RPMI 5 mM glucose + 10% FBS, 0.19 µM	110	108	–
RPMI 5 mM glucose + 10% FBS, 0.569 µM	84.5	105	–
RPMI 5 mM glucose + 10% FBS, 1.71 µM	89.7	92.8	–
RPMI 5 mM glucose + 10% FBS, 5.12 µM	57.6	67	–
RPMI 5 mM glucose + 10% FBS, 15.4 µM	30.1	41.5	–
RPMI 5 mM glucose + 10% FBS, 46.1 µM	4.34	4.51	–
RPMI 5 mM glucose + 10% dialyzed FBS, 0.000781 µM	104	106	113
RPMI 5 mM glucose + 10% dialyzed FBS, 0.00234 µM	98.2	108	122
RPMI 5 mM glucose + 10% dialyzed FBS, 0.00702 µM	99.4	111	110
RPMI 5 mM glucose + 10% dialyzed FBS, 0.0211 µM	94.3	108	109
RPMI 5 mM glucose + 10% dialyzed FBS, 0.0632 µM	93	109	103
RPMI 5 mM glucose + 10% dialyzed FBS, 0.19 µM	106	102	95
RPMI 5 mM glucose + 10% dialyzed FBS, 0.569 µM	85.3	104	84.4
RPMI 5 mM glucose + 10% dialyzed FBS, 1.71 µM	66.9	95	61.9
RPMI 5 mM glucose + 10% dialyzed FBS, 5.12 µM	45.1	63.7	29.9
RPMI 5 mM glucose + 10% dialyzed FBS, 15.4 µM	34.5	36.1	5.89
RPMI 5 mM glucose + 10% dialyzed FBS, 46.1 µM	3.22	4.2	5.24

AUC of viability dose-response curve
Conditions	NOMO1 [1]	P12-Ichikawa [2]	SEM cells [3]
HPLM + 10% dialyzed FBS	384	423	363
RPMI 5 mM glucose + 10% FBS	385	400	346
RPMI 5 mM glucose + 10% dialyzed FBS	368	392	328

Nc1ncnc2c1ncn2[C@@H]1O[C@@H](CO)[C@H](O)[C@@H]1O
cell viability [%]
Conditions	NOMO1 [4]	SEM cells [6]
HPLM + 10% dialyzed FBS, 0.000781 µM	94.2	93.8
HPLM + 10% dialyzed FBS, 0.00234 µM	125	90.1
HPLM + 10% dialyzed FBS, 0.00702 µM	117	111
HPLM + 10% dialyzed FBS, 0.0211 µM	140	119
HPLM + 10% dialyzed FBS, 0.0632 µM	142	124
HPLM + 10% dialyzed FBS, 0.19 µM	134	117
HPLM + 10% dialyzed FBS, 0.569 µM	144	109
HPLM + 10% dialyzed FBS, 1.71 µM	156	109
HPLM + 10% dialyzed FBS, 5.12 µM	139	115
HPLM + 10% dialyzed FBS, 15.4 µM	140	118
HPLM + 10% dialyzed FBS, 46.1 µM	136	62.4
RPMI 5 mM glucose + 10% dialyzed FBS, 0.000781 µM	122	106
RPMI 5 mM glucose + 10% dialyzed FBS, 0.00234 µM	121	105
RPMI 5 mM glucose + 10% dialyzed FBS, 0.00702 µM	122	116
RPMI 5 mM glucose + 10% dialyzed FBS, 0.0211 µM	127	112
RPMI 5 mM glucose + 10% dialyzed FBS, 0.0632 µM	135	130
RPMI 5 mM glucose + 10% dialyzed FBS, 0.19 µM	136	144
RPMI 5 mM glucose + 10% dialyzed FBS, 0.569 µM	133	121
RPMI 5 mM glucose + 10% dialyzed FBS, 1.71 µM	135	123
RPMI 5 mM glucose + 10% dialyzed FBS, 5.12 µM	127	123
RPMI 5 mM glucose + 10% dialyzed FBS, 15.4 µM	155	84.9
RPMI 5 mM glucose + 10% dialyzed FBS, 46.1 µM	137	50.2

AUC of viability dose-response curve
Conditions	NOMO1 [1]	P12-Ichikawa [2]	SEM cells [3]
HPLM + 10% dialyzed FBS	454	464	467
RPMI 5 mM glucose + 10% FBS	467	477	466
RPMI 5 mM glucose + 10% dialyzed FBS	441	472	449

CCN1\C=C(\C(O)=O)C(=O)C2=C1C=C(N3CCNCC3)C(=C2)F
cell viability [%], SEM cells [6]
Conditions	HPLM + 10% dialyzed FBS	RPMI 5 mM glucose + 10% dialyzed FBS
0.000781 µM	95	117
0.00234 µM	130	124
0.00702 µM	125	125
0.0211 µM	136	129
0.0632 µM	116	108
0.19 µM	59.4	48.3
0.569 µM	112	114
1.71 µM	77.9	104
5.12 µM	90.6	98
15.4 µM	59.8	101
46.1 µM	78.8	77.8

AUC of viability dose-response curve
Conditions	NOMO1 [1]	P12-Ichikawa [2]	SEM cells [3]
HPLM + 10% dialyzed FBS	430	456	385
RPMI 5 mM glucose + 10% FBS	465	433	392
RPMI 5 mM glucose + 10% dialyzed FBS	455	449	404

C[C@]\12CC[C@H](O)CC1=C/C[C@@H]3[C@@H]2CC[C@@]\4(C)[C@H]3C\C=C4C5=CN=CC=C5
AUC of viability dose-response curve
Conditions	NOMO1 [1]	P12-Ichikawa [2]	SEM cells [3]
HPLM + 10% dialyzed FBS	472	468	469
RPMI 5 mM glucose + 10% FBS	472	460	456
RPMI 5 mM glucose + 10% dialyzed FBS	454	459	469
